According to ChEMBL document CHEMBL5291721, “A preclinical secondary pharmacology resource illuminates target-adverse drug reaction associations of marketed drugs” (Nat Commun, 2023):

Columns and labels:
[1] = target: Sodium-dependent dopamine transporter (Homo sapiens, UniProt Q01959)
[2] = target: T1, Alpha-2A adrenergic receptor (Homo sapiens, UniProt P08913); assay type: functional, cell-based
T1 sequence (P08913 whole entry): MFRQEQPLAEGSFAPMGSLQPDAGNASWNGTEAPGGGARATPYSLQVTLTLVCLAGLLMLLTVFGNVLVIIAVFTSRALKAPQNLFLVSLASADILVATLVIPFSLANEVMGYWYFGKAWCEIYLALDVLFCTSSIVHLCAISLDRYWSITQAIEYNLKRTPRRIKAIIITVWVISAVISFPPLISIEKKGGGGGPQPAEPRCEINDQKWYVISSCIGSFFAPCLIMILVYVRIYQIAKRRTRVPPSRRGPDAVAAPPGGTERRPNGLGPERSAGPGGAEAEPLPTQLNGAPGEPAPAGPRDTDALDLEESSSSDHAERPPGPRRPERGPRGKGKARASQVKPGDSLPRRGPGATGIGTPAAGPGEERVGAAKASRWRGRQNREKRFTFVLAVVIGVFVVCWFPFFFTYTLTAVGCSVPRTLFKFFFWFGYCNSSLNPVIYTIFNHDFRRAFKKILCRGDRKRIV

[3] = target: T2, Muscarinic acetylcholine receptor M2 (Homo sapiens, UniProt P08172); assay type: functional, cell-based
T2 sequence (P08172 whole entry): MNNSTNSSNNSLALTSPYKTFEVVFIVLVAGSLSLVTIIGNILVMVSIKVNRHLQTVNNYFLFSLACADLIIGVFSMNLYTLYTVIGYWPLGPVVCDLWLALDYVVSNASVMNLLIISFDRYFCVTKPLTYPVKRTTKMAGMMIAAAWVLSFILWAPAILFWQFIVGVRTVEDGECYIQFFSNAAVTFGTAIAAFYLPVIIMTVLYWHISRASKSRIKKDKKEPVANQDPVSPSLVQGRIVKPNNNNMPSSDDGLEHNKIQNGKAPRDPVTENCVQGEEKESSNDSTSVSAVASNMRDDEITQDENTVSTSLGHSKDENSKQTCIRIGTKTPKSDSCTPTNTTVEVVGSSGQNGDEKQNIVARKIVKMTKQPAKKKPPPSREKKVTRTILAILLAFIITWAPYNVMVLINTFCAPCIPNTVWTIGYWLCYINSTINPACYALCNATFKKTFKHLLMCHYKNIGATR

[4] = target: T3, 5-hydroxytryptamine receptor 3A (Homo sapiens, UniProt P46098); assay type: functional
T3 sequence (P46098 whole entry): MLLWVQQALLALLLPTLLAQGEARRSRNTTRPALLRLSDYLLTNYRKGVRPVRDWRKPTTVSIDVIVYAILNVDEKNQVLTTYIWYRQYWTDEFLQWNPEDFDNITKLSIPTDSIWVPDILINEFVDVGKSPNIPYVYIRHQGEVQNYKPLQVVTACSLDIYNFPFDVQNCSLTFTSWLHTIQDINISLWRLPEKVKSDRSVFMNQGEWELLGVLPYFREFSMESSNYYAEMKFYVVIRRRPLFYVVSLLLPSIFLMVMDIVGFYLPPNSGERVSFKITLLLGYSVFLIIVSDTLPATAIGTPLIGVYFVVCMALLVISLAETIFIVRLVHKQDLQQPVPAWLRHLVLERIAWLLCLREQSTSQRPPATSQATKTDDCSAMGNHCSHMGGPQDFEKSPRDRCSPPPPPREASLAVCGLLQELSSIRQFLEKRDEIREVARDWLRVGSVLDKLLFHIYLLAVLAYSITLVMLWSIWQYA

[5] = target: Adenosine receptor A2a (Homo sapiens, UniProt P29274)
[6] = target: Melanocortin receptor 3 (Homo sapiens, UniProt P41968)
[7] = target: T4, Type-1 angiotensin II receptor (Homo sapiens, UniProt P30556)
T4 sequence (P30556 whole entry): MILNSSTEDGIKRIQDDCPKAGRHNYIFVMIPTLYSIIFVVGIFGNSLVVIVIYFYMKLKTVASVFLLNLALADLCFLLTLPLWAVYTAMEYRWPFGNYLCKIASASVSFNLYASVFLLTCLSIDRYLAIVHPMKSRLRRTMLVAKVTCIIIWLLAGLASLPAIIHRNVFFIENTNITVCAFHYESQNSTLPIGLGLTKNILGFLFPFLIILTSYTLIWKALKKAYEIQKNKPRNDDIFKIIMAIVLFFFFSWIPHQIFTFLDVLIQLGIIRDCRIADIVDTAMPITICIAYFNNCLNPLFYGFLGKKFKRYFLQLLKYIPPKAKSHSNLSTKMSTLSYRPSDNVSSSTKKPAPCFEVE

[8] = target: T5, 5-hydroxytryptamine receptor 1A (Homo sapiens, UniProt P08908); assay type: functional, cell-based
T5 sequence (P08908 whole entry): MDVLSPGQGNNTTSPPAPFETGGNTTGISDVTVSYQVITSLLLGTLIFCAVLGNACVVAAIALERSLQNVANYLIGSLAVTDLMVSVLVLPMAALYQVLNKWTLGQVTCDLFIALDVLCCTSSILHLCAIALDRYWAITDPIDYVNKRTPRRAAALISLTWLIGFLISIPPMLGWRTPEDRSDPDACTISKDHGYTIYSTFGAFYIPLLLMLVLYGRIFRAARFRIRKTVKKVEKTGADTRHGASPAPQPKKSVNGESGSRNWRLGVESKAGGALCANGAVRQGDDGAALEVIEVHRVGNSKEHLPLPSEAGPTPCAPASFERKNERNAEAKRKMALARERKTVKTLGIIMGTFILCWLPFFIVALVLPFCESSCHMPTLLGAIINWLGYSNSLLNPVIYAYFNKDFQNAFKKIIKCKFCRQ

[9] = target: Delta-type opioid receptor (Homo sapiens, UniProt P41143)
[10] = target: Growth hormone secretagogue receptor type 1 (Homo sapiens, UniProt Q92847)
[11] = target: Neuronal acetylcholine receptor subunit alpha-4 (Homo sapiens, UniProt P43681)
[12] = target: T6, Adenosine receptor A3 (Homo sapiens, UniProt P0DMS8)
T6 sequence (P0DMS8 whole entry): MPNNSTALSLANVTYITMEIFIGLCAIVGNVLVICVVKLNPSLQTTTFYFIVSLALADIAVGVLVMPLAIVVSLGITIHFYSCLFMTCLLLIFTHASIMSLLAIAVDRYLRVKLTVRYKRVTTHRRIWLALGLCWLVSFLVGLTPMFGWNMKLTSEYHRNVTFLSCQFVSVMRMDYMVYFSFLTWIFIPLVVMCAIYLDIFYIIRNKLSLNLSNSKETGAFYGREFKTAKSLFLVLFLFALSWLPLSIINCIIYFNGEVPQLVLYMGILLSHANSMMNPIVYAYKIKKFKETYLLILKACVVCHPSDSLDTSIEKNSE
Also: assay procedure not described here.

Chain of Growth hormone secretagogue receptor type 1 (Q92847 whole entry): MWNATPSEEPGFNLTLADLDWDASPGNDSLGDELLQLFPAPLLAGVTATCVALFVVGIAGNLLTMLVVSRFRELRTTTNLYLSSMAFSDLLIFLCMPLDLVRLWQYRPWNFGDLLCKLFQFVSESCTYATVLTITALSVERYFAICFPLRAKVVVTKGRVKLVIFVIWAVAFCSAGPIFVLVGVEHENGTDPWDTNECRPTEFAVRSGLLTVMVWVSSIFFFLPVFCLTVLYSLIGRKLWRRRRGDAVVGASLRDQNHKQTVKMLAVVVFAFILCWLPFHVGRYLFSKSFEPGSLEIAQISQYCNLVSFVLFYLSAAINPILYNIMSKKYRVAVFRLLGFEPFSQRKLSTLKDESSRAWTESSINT
Chain of Sodium-dependent dopamine transporter (Q01959 whole entry): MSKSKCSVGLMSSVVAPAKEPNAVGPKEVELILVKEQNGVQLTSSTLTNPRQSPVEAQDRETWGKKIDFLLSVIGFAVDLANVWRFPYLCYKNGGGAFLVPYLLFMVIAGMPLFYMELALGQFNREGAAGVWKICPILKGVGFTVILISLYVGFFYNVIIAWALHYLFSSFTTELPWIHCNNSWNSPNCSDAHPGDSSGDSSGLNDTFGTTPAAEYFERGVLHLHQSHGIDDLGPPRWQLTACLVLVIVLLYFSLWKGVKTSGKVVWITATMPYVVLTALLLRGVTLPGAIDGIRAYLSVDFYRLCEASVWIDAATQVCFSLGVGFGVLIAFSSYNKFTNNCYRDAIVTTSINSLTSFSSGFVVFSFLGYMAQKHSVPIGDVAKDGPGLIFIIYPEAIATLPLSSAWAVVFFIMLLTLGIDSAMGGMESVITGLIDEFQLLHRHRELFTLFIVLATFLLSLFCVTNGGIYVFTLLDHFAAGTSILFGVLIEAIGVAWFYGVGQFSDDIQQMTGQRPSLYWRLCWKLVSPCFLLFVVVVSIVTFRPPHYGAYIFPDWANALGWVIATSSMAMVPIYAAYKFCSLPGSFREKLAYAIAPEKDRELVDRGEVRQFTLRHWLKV
Chain of Adenosine receptor A2a (P29274 whole entry): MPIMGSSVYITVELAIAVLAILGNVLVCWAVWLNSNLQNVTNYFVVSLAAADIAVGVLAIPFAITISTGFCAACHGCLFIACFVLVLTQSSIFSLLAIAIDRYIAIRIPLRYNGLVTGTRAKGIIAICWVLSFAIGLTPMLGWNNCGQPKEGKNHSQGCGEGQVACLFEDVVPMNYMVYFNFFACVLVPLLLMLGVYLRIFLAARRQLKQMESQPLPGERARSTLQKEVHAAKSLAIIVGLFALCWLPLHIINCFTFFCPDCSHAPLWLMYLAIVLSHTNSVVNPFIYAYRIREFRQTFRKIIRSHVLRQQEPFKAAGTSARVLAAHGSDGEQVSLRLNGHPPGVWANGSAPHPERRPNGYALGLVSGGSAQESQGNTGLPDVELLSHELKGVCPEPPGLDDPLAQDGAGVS
Chain of Neuronal acetylcholine receptor subunit alpha-4 (P43681 whole entry): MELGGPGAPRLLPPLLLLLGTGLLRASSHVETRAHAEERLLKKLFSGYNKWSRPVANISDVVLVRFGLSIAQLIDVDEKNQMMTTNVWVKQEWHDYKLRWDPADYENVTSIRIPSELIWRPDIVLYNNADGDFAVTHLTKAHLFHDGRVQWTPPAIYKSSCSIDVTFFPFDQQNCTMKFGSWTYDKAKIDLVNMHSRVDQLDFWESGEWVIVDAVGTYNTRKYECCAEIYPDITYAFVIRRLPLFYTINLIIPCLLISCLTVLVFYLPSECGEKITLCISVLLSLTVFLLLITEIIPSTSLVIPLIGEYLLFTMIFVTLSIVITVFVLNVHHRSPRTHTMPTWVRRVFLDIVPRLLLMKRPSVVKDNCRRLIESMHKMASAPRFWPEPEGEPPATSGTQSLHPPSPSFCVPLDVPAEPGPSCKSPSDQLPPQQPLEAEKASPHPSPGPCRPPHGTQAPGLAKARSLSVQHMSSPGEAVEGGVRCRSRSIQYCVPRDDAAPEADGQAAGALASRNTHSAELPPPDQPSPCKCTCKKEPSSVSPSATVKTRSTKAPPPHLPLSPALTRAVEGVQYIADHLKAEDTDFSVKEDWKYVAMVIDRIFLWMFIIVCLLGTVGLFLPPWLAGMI
Chain of Delta-type opioid receptor (P41143 whole entry): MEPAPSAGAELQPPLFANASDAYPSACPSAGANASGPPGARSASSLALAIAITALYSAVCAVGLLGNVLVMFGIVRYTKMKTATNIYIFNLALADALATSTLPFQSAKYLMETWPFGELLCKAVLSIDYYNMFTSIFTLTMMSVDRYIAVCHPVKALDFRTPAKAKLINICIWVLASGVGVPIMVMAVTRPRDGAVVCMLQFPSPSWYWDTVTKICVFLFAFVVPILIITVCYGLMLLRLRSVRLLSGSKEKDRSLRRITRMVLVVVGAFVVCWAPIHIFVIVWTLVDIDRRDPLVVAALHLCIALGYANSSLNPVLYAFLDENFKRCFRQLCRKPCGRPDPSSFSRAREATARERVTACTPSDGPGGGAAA
Chain of Melanocortin receptor 3 (P41968 whole entry): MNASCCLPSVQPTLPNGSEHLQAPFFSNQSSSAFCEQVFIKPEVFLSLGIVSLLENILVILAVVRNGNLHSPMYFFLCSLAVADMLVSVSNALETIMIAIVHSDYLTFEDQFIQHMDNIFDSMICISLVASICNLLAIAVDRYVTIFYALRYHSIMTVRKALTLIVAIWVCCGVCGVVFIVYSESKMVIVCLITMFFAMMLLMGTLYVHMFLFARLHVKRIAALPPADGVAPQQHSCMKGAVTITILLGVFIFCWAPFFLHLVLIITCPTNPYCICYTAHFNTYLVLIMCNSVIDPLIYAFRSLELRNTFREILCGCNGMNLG

Row | Structure (SMILES) | AC50 [1] [µM] | AC50 [2] [µM] | AC50 [3] [µM] | AC50 [4] [µM] | AC50 [5] [µM] | AC50 [6] [µM] | AC50 [7] [µM] | AC50 [8] [µM] | AC50 [9] [µM] | AC50 [10] [µM] | AC50 [11] [µM] | AC50 [12] [µM]
1 | CNC1=Nc2ccc(Cl)cc2C(c2ccccc2)=[N+]([O-])C1 [CHLORDIAZEPOXIDE] | > 30 | > 10 | > 10 | > 30 | > 30 | > 30 | > 30 | > 30 | > 30 | > 30 | > 10 | –
2 | CCC[C@H](NC(=O)[C@@H]1[C@H]2CCC[C@H]2CN1C(=O)[C@@H](NC(=O)[C@@H](NC(=O)c1cnccn1)C1CCCCC1)C(C)(C)C)C(=O)C(=O)NC1CC1 | > 10 | – | – | > 30 | > 30 | > 30 | > 30 | – | > 30 | > 30 | > 10 | > 30
3 | CCCCC1C(=O)N(c2ccccc2)N(c2ccccc2)C1=O [PHENYLBUTAZONE] | > 30 | > 10 | > 10 | > 30 | > 30 | > 30 | > 30 | > 10 | > 30 | > 30 | > 30 | > 30
4 | CC[C@@H]([C@H](C)O)n1ncn(-c2ccc(N3CCN(c4ccc(OC[C@@H]5CO[C@@](Cn6cncn6)(c6ccc(F)cc6F)C5)cc4)CC3)cc2)c1=O [POSACONAZOLE] | > 30 | – | – | – | – | > 30 | – | – | > 30 | – | – | > 30
5 | C[C@H](Cc1cc2c(c(C(N)=O)c1)N(CCCO)CC2)NCCOc1ccccc1OCC(F)(F)F [SILODOSIN] | – | > 30 | – | – | – | – | – | – | – | – | – | –
6 | OC1(c2ccc(Cl)cc2)c2ccccc2C2=NCCN21 (stereo unspecified) [MAZINDOL] | – | > 30 | > 30 | > 30 | > 30 | > 30 | > 30 | > 30 | > 30 | > 30 | > 30 | 9.6
7 | O=[N+]([O-])c1ccc(O)c2ncccc12 [NITROXOLINE] | – | > 30 | > 30 | 6.6 | – | – | – | > 30 | 5.7 | – | – | –
8 | CC(C)COCC(CN(Cc1ccccc1)c1ccccc1)N1CCCC1 (stereo unspecified) [BEPRIDIL] | 16.2 | > 30 | > 30 | > 30 | > 30 | 12.5 | > 30 | > 30 | > 30 | 22.1 | – | –
9 | CCC(C)C1(CC)C(=O)NC(=O)NC1=O (stereo unspecified) [BUTABARBITAL] | > 30 | > 30 | > 30 | – | > 30 | > 30 | > 30 | > 30 | – | > 30 | > 30 | > 30
10 | CN1CCN(C2=Nc3ccccc3Oc3ccc(Cl)cc32)CC1 [LOXAPINE] | > 10 | – | – | 0.38 | > 30 | > 30 | > 30 | > 10 | 8.51 | > 30 | > 10 | > 30
11 | CN(C)CCCNc1c2ccccc2nc2cccc([N+](=O)[O-])c12 [NITRACRINE] | > 30 | > 30 | > 30 | > 30 | 17 | > 30 | > 30 | > 30 | – | > 30 | > 30 | > 30
12 | CC(C)NCC(O)c1ccc(O)c(O)c1 (stereo unspecified) [ISOPROTERENOL] | > 30 | – | > 10 | > 10 | > 30 | > 30 | > 30 | > 10 | > 10 | > 30 | > 30 | 20.3
13 | CNCc1ccc(-c2[nH]c3cc(F)cc4c3c2CCNC4=O)cc1 [RUCAPARIB] | > 30 | – | > 10 | – | > 30 | > 30 | > 30 | – | – | > 30 | > 30 | –
14 | Cc1cccc(N2CC(CO)OC2=O)c1 (stereo unspecified) [TOLOXATONE] | > 30 | > 30 | > 30 | > 30 | > 30 | > 30 | > 30 | > 30 | – | > 30 | > 30 | > 30
15 | CCOC(=O)c1cncn1[C@H](C)c1ccccc1 [ETOMIDATE] | > 10 | > 10 | > 10 | – | > 10 | > 10 | > 10 | > 10 | > 30 | > 10 | > 10 | > 10
16 | O=C(O)c1cn(C2CC2)c2cc(N3CCNCC3)c(F)cc2c1=O [CIPROFLOXACIN] | – | – | – | – | > 30 | > 30 | > 30 | – | – | > 30 | – | > 30
17 | CCCN[C@H]1CCc2nc(N)sc2C1 [PRAMIPEXOLE] | > 30 | – | > 10 | > 30 | > 30 | > 30 | > 30 | 16 | > 30 | > 30 | > 10 | > 30
18 | Cc1cnc(C(=O)NCCc2ccc(S(=O)(=O)NC(=O)NC3CCCCC3)cc2)cn1 [GLIPIZIDE] | – | > 10 | – | > 10 | > 30 | > 30 | > 30 | > 10 | > 10 | > 30 | > 10 | > 30
19 | CCCc1nc(C(C)(C)O)c(C(=O)O)n1Cc1ccc(-c2ccccc2-c2nnn[nH]2)cc1 [OLMESARTAN] | – | – | – | – | – | – | 0.0004 | – | – | – | – | –
